In ChEMBL document CHEMBL3865836, “Biosynthesis-Inspired Total Synthesis of Bioactive Styryllactones (+)-Goniodiol, (6S,7S,8S)-Goniodiol, (-)-Parvistone D, and (+)-Parvistone E” (J Nat Prod, 2016):

Key:
[1] = Cytotoxicity against human HeLa cells by trypan blue dye exclusion method; assay type: functional, cell-based
[2] = Cytotoxicity against human Bcap32 cells by trypan blue dye exclusion method; assay type: functional, cell-based
[3] = Cytotoxicity against human Bel7470 cells by trypan blue dye exclusion method; assay type: functional, cell-based
[4] = Cytotoxicity against human A549 cells; assay type: functional; conditions: read-out: ED50 (the source's name)
[5] = Cytotoxicity against mouse P388 cells; assay type: functional, cell-based

Row | Structure (SMILES) | IC50 [1] [µM] | IC50 [2] [µM] | IC50 [3] [µM] | EC50 [4] [µM] | IC50 [5] [µM]
1 | O=C1C=CC[C@H]([C@@H](O)[C@H](O)c2ccccc2)O1 | 12.8 | 54.7 | 4.1 | – | –
2 | O=C1C=CC[C@H]([C@H](O)[C@H](O)c2ccccc2)O1 [GONIODIOL] | – | – | – | 0.51 | 19.5
